Measurements published in patent US20180028680A1, “GLYCOOPTIMIZED ANTIBODY DRUG CONJUGATES” (GLYCOTOPE GMBH, priority 2015, published 2018).

Tested on: SK-BR-3 cells
Experiment: Inhibition of proliferation, MTT assay
Type: cell-based, human
Settings: 20 nM, positive control
Description: The MTT assay is a non-radioactive assay based on the cleavage of the soluble yellow tetrazolium salt MTT (3-[4,5-Dimethylthiazol-2-yl]-2,5-diphenyltetrazolium bromide; Thiazolyl Blue) by mitochondrial dehydrogenases of viable cells. […] The absorbance signal is a direct measure for viable cells in the culture.
Human IgG1 or medium alone served as negative controls. Briefly, SK-BR-3 cells were grown for 2 days in 96-well flat bottom plates. […] The supernatant was completely removed and MTT was added. Cells were incubated for 2 hours with MTT at 37° C. in a humidified CO2 incubator. The supernatant was removed and cells were lysed using HCI and 2-propanol containing lysis buffer for 1 h at room temperature in the dark. Absorbance at 570 nm/630 nm was measured in a plate reader Infinite F200 (Tecan Austria GmbH).
Proliferation after 4 days of incubation with the antibodies was calculated relative to the proliferation in the medium control.

Compound: CC(=O)O[C@H]1C(=O)[C@@]2(C)[C@H]([C@H](OC(=O)c3ccccc3)[C@]3(O)C[C@H](OC(=O)[C@H](O)[C@@H](NC(=O)c4ccccc4)c4ccccc4)C(C)=C1C3(C)C)[C@]1(OC(C)=O)CO[C@@H]1C[C@@H]2O [Taxol]
- proliferation compared to the medium control: 6%
